{"source": "patent US11738030B2", "about": "“Treatments for disturbed cerebral homeostasis” (Aneuryst, Inc., priority 2021, dated 2023)", "key": {"[1]": {"assay": "Intraparenchymal ICP measurement in adult patient with suspected bacterial meningitis", "format": "in vivo", "conditions": "60 mg intravenous infusion; adult patient with ICP>20 mmHg and suspected bacterial meningitis", "protocol": "In an adult patient with an ICP>20 mmHg and suspected bacterial meningitis as determined by lumbar puncture, one would administer by intravenous infusion 60 mg fasudil hydrochloride. One would place an intraparenchymal device to measure ICP in the patient."}, "[2]": {"test_system": "adult male Sprague-Dawley rats", "conditions": "cited from earlier work; for Mean percentage of brain water content, Cerebellum / Mean percentage of brain water content, Left Hemisphere / Mean percentage of brain water content, Right Hemisphere: 24 hrs post-surgery"}, "[3]": {"test_system": "adult male Sprague-Dawley rats", "assay": "Brain water content after endovascular perforation in rats", "format": "in vivo, rat", "conditions": "one treatment, 24 h", "protocol": "A sharpened 4-0 nylon suture was introduced into the left internal carotid artery of 92 adult male Sprague-Dawley rats weighing […]. In 65 of the 92 rats, the bifurcation of the anterior and middle cerebral arteries was endovascularly perforated; in the remaining 27 rats, the suture was withdrawn without perforation.\nAt 0.5 hours after the procedure, 34 of the 65 perforated rats were administered 1.5 ml of 0.9% saline (vehicle group), and the remaining 31 were administered 10 mg/kg hydroxyfasudil dissolved in 1.5 ml of 0.9% saline (hydroxyfasudil group). The 27 unperforated rats received neither vehicle nor […] (sham group).\n24 hours after the procedure, all rats were sacrificed. The animals' brains were removed and separated into left hemisphere, right hemisphere, cerebellum and brain stem. Each part was weighed immediately after removal (wet weight) and after drying in 100° C. for 72 h (dry weight). The percentage of water content was calculated as [(wet weight−dry weight)/wet weight]×100%."}, "[4]": {"test_system": "adult male Sprague-Dawley rats", "conditions": "cited from earlier work; for Garcia neurological score: SAH + HF"}, "[5]": {"conditions": "one treatment, 10 mg/kg at 0.5 h after perforation, 10 mg/kg"}, "[6]": {"conditions": "one treatment, 10 mg/kg at 0.5 h after perforation, listed as HF, 10 mg/kg"}, "[7]": {"conditions": "two treatments instead of one, and measurements at 72 hours after perforation"}}, "note": "Where a name gives a salt, the structure may show the parent alone. Read-outs that look alike come from different tables or passages of the source.", "data": [{"smiles": "O=S(=O)(c1cccc2cnccc12)N1CCCNCC1", "note": "[fasudil hydrochloride]", "values": [{"measurement": "ICP upon fasudil infusion", "setting": "[1]", "value": "reduction of ICP"}]}, {"smiles": "O=c1[nH]ccc2c(S(=O)(=O)N3CCCNCC3)cccc12", "note": "[hydroxyfasudil]", "values": [{"measurement": "Mean percentage of brain water content, Cerebellum", "setting": "[2]; [5]", "value": "~78.7", "unit": "%"}, {"measurement": "Mean percentage of brain water content, Left Hemisphere", "setting": "[2]; [5]", "value": "~79.3", "unit": "%"}, {"measurement": "Mean percentage of brain water content, Right Hemisphere", "setting": "[2]; [5]", "value": "~79.25", "unit": "%"}, {"measurement": "Mean percentage of brain water content, Cerebellum", "setting": "[2]; [6]", "value": 78.7, "unit": "%"}, {"measurement": "Mean percentage of brain water content, Left Hemisphere", "setting": "[2]; [6]", "value": 79.3, "unit": "%"}, {"measurement": "Mean percentage of brain water content, Right Hemisphere", "setting": "[2]; [6]", "value": 79.35, "unit": "%"}, {"measurement": "Difference in brain water content between vehicle group and hydroxyfasudil group", "setting": "[2]; [7]", "value": "failed to demonstrate any significant differences"}, {"measurement": "Mean percentage of brain water content, Cerebellum", "setting": "[2]; two treatments", "value": 78.84, "unit": "%"}, {"measurement": "Mean percentage of brain water content, Left Hemisphere", "setting": "[2]; two treatments", "value": 79.3, "unit": "%"}, {"measurement": "Mean percentage of brain water content, Right Hemisphere", "setting": "[2]; two treatments", "value": 79.25, "unit": "%"}, {"measurement": "Increase in water content versus sham group, right hemisphere", "setting": "[3]; vehicle increase 0.5%", "value": "about 0.25%"}, {"measurement": "Increase in water content versus sham group, cerebellum", "setting": "[3]; vehicle increase 0.6%", "value": "about 0.2%"}, {"measurement": "Increase in water content versus sham group, left hemisphere", "setting": "[3]; vehicle increase 0.7%", "value": "about 0.3%"}, {"measurement": "Improvement in water content increase, left hemisphere", "setting": "[3]; versus vehicle, p<0.01", "value": "about 57%"}, {"measurement": "Improvement in water content increase, right hemisphere", "setting": "[3]; versus vehicle, p<0.01", "value": "about 70%"}, {"measurement": "Improvement in water content increase, cerebellum", "setting": "[3]; versus vehicle, p<0.05", "value": "about 67%"}, {"measurement": "Garcia neurological score", "setting": "[4]; 1 treatment, 24 hrs, score out of 18", "value": 14}, {"measurement": "Garcia neurological score", "setting": "[4]; 1 treatment, 72 hrs", "value": 14}, {"measurement": "Garcia neurological score", "setting": "[4]; 2 treatments, 24 hrs", "value": 15.5}, {"measurement": "Difference in neurological performance between vehicle group and hydroxyfasudil group", "setting": "[4]; [7]", "value": "failed to demonstrate any significant differences"}]}]}
